Experiment: xn = mol fraction of the nth substance listed
Details: 101 kPa, Liquid; for speed of sound: Single path-length method

COC(C)(C)C [2-methoxy-2-methylpropane] + c1ccccc1
Details | mass density [kg/m3] | speed of sound [m/s]
288.15 K, x1 = 0.052 | 874.712 | 1328.4
288.15 K, x1 = 0.111 | 864.515 | 1309.5
288.15 K, x1 = 0.202 | 849.416 | 1281.7
288.15 K, x1 = 0.303 | 833.719 | 1252.5
288.15 K, x1 = 0.397 | 819.912 | 1226.5
288.15 K, x1 = 0.5 | 805.496 | 1199.1
288.15 K, x1 = 0.596 | 792.712 | 1174.8
288.15 K, x1 = 0.698 | 779.712 | 1149.4
288.15 K, x1 = 0.791 | 768.503 | 1128.2
288.15 K, x1 = 0.902 | 755.682 | 1103
288.15 K, x1 = 0.95 | 750.294 | 1092.4
288.15 K, x1 = 1 | 744.861 | 1083.4
290.65 K, x1 = 0.052 | 872.067 | 1316.5
290.65 K, x1 = 0.111 | 861.888 | 1297.5
290.65 K, x1 = 0.202 | 846.799 | 1269.6
290.65 K, x1 = 0.303 | 831.129 | 1240.5
290.65 K, x1 = 0.397 | 817.328 | 1214.4
290.65 K, x1 = 0.5 | 802.92 | 1187.2
290.65 K, x1 = 0.596 | 790.137 | 1163
290.65 K, x1 = 0.698 | 777.135 | 1137.7
290.65 K, x1 = 0.791 | 765.921 | 1116.4
290.65 K, x1 = 0.902 | 753.094 | 1091.2
290.65 K, x1 = 0.95 | 747.701 | 1080.6
290.65 K, x1 = 1 | 742.259 | 1071.6
293.15 K, x1 = 0.052 | 869.419 | 1304.8
293.15 K, x1 = 0.111 | 859.259 | 1285.9
293.15 K, x1 = 0.202 | 844.19 | 1258
293.15 K, x1 = 0.303 | 828.533 | 1228.9
293.15 K, x1 = 0.397 | 814.742 | 1202.9
293.15 K, x1 = 0.5 | 800.338 | 1175.6
293.15 K, x1 = 0.596 | 787.557 | 1151.4
293.15 K, x1 = 0.698 | 774.552 | 1126.2
293.15 K, x1 = 0.791 | 763.334 | 1104.8
293.15 K, x1 = 0.902 | 750.497 | 1079.6
293.15 K, x1 = 0.95 | 745.1 | 1069
293.15 K, x1 = 1 | 739.654 | 1060
295.65 K, x1 = 0.052 | 866.766 | 1293
295.65 K, x1 = 0.111 | 856.624 | 1274.2
295.65 K, x1 = 0.202 | 841.573 | 1246.3
295.65 K, x1 = 0.303 | 825.932 | 1217.3
295.65 K, x1 = 0.397 | 812.151 | 1191.3
295.65 K, x1 = 0.5 | 797.75 | 1164
295.65 K, x1 = 0.596 | 784.966 | 1139.8
295.65 K, x1 = 0.698 | 771.959 | 1114.6
295.65 K, x1 = 0.791 | 760.733 | 1093.1
295.65 K, x1 = 0.902 | 747.886 | 1067.9
295.65 K, x1 = 0.95 | 742.485 | 1057.2
295.65 K, x1 = 1 | 737.036 | 1048.5
298.15 K, x1 = 0.052 | 864.111 | 1281.3
298.15 K, x1 = 0.111 | 853.986 | 1262.6
298.15 K, x1 = 0.202 | 838.954 | 1234.8
298.15 K, x1 = 0.303 | 823.323 | 1205.8
298.15 K, x1 = 0.397 | 809.552 | 1179.8
298.15 K, x1 = 0.5 | 795.155 | 1152.5
298.15 K, x1 = 0.596 | 782.366 | 1128.2
298.15 K, x1 = 0.698 | 769.356 | 1103
298.15 K, x1 = 0.791 | 758.126 | 1081.5
298.15 K, x1 = 0.902 | 745.267 | 1056.2
298.15 K, x1 = 0.95 | 739.86 | 1045.5
298.15 K, x1 = 1 | 734.406 | 1036.9
300.65 K, x1 = 0.052 | 861.451 | 1269.7
300.65 K, x1 = 0.111 | 851.345 | 1251
300.65 K, x1 = 0.202 | 836.329 | 1223.2
300.65 K, x1 = 0.303 | 820.71 | 1194.3
300.65 K, x1 = 0.397 | 806.945 | 1168.3
300.65 K, x1 = 0.5 | 792.548 | 1141
300.65 K, x1 = 0.596 | 779.76 | 1116.7
300.65 K, x1 = 0.698 | 766.742 | 1091.5
300.65 K, x1 = 0.791 | 755.506 | 1070
300.65 K, x1 = 0.902 | 742.638 | 1044.7
300.65 K, x1 = 0.95 | 737.224 | 1033.8
300.65 K, x1 = 1 | 731.766 | 1025.4
303.15 K, x1 = 0.052 | 858.785 | 1258
303.15 K, x1 = 0.111 | 848.697 | 1239.5
303.15 K, x1 = 0.202 | 833.698 | 1211.7
303.15 K, x1 = 0.303 | 818.089 | 1182.8
303.15 K, x1 = 0.397 | 804.33 | 1156.9
303.15 K, x1 = 0.5 | 789.936 | 1129.6
303.15 K, x1 = 0.596 | 777.144 | 1105.2
303.15 K, x1 = 0.698 | 764.119 | 1080
303.15 K, x1 = 0.791 | 752.877 | 1058.5
303.15 K, x1 = 0.902 | 739.994 | 1033.2
303.15 K, x1 = 0.95 | 734.576 | 1022.3
303.15 K, x1 = 1 | 729.112 | 1013.9
305.65 K, x1 = 0.052 | – | 1246.5
305.65 K, x1 = 0.111 | – | 1228
305.65 K, x1 = 0.202 | – | 1200.3
305.65 K, x1 = 0.303 | – | 1171.4
305.65 K, x1 = 0.397 | – | 1145.5
305.65 K, x1 = 0.5 | – | 1118.2
305.65 K, x1 = 0.596 | – | 1093.8
305.65 K, x1 = 0.698 | – | 1068.6

Reference: the NIST ThermoML archive (doi:10.1007/s10765-007-0223-x)
